Data from patent publication US20230100062A1, “ANTIMICROBIAL PEPTIDES” (priority 2019, published 2023).
≈ marks a conversion by molar mass, not a printed value. Square brackets hold non-standard residues; d marks the D form. Ends that are not written are not given here. * marks the point of attachment. For = O=C*

Columns and labels:
[1] = system: K. pneumoniae (NCTC 5055); assay: microbe, parasite or virus in culture; assay type: cell-based
Protocol: (§1) Minimum Inhibitory Concentrations assay. Minimum inhibitory concentrations (MICs) were determined by broth microdilution on P. aeruginosa, E. coli, S. aureus, M. luteus, B. subtilis, S. typhimurium and K. pneumoniae according to the Clinical and Laboratory Standards Institute. Typically, 100 μL of 0.5-1×10^6 CFU per ml of each bacterium in Mueller Hinton media broth (Oxoid) were incubated in 96-well microtiter plates with 100 μL of serial two-fold dilutions of the corresponding antimicrobial agent (from 100 to 0 μM) at 37° C. on a 3D orbital shaker. The absorbance was measured after the addition of NI01, its derivatives or an antibiotic at 600 nm using a SpectraMax i3× Multi-Mode Microplate Reader (Molecular Devices). MICs were defined as the lowest protein concentration that inhibited visible bacterial growth after 24 h at 37° C.

[2] = system: P. aeruginosa (ATCC 27853); assay: microbe, parasite or virus in culture; assay type: cell-based; settings: for antibacterial activity in words: P. aeruginosa, summary of MICs
Protocol: as §1

[3] = system: M. luteus (ATCC 49732); assay: microbe, parasite or virus in culture; assay type: cell-based
Protocol: as §1

[4] = system: E. coli (ATCC 15597); assay: microbe, parasite or virus in culture; assay type: cell-based
Protocol: as §1

[5] = system: S. aureus (ATCC 6538); assay: microbe, parasite or virus in culture; assay type: cell-based; settings: for antibacterial activity in words: S. aureus, summary of MICs
Protocol: as §1

[6] = system: B. subtilis (ATCC 6633); assay: microbe, parasite or virus in culture; assay type: cell-based
Protocol: as §1

[7] = system: S. typhimurium (DA6192); assay: Minimum inhibitory concentration, broth microdilution; assay type: cell-based; settings: 24 h at 37° C.
Protocol: as §1

[8] = system: Human erythrocytes; assay: Hemolysis assay; assay type: cell-based
Protocol: (§2) Hemolysis assay. Hemolysis was determined using human erythrocytes sourced commercially from Cambridge Bioscience Ltd. and used within two days. 10% (vol/vol) suspensions of human erythrocytes were incubated with NI01, its derivatives or antibiotics. The cells were rinsed four times in 10 mM phosphate buffer saline (PBS, GibcoTM), pH 7.2, by repeated centrifugation and re-suspension (3 min at 3000×g). The cells were then incubated at room temperature for 1 h in either deionized water (fully hemolysed control), PBS, or with a corresponding antimicrobial agent in PBS. After centrifugation at 10,000×g for 5 min, the supernatant was separated from the pellet, and the absorbance was measured at 550 nm using a SpectraMax i3× Multi-Mode Microplate Reader (Molecular Devices). Absorbance of the suspension treated with deionized water defined complete hemolysis. The values given in Table S2 correspond to concentrations needed to lyse half of the sample population (50% lysis of erythrocytes) and are expressed as median hemolytic doses—HD50.

[9] = Hemolysis assay; assay type: cell-based, human; settings: human, human erythrocytes, 10% (vol/vol) suspension, pH 7.2
Protocol: as §2

[10] = system: mammalian cells lines; settings: cited from earlier work
[11] = In-liquid AFM imaging of SLBs mimicking bacterial membranes; settings: 0.25 μM
Excerpt: Lipid Vesicle Preparation. 1-palmitoyl-2-oleoyl-glycero-3-phosphocholine (POPC) with 1-palmitoyl-2-oleoyl-sn-glycero-3-phospho-(1′-rac-glycerol) (POPG) lipids used for vesicle construction were from Avanti Polar Lipids (Alabaster, USA). POPC was used as mammalian model membranes, and POPC/POPG (3:1, molar ratios) was used as bacterial model membranes. The lipids were weighted up, dissolved in chloroform-methanol (2:1, vol/vol), and dried under a nitrogen stream to form a thin film. The film was hydrated in 10 mM phosphate buffer (pH 7.4), vortexed for 2 min and bath sonicated for 30 min. The obtained suspension was extruded using a hand-held extruder (Avanti Polar lipids) (29 times, polycarbonate filter, 0.05 μm) to give a clear solution of small unilamellar vesicles, which were analysed (50 nm) by photon correlation spectroscopy (ZEN3600; Malvern Instruments, UK) following the re-suspension of vesicles to a final concentration of 1 mg/mL. Dynamic light scattering batch measurements were carried out in a low volume disposable cuvette at 25° C. Hydrodynamic radii were obtained through the fitting of autocorrelation data using the manufacturer's Dispersion Technology Software (version 5.10).
Preparation of SLBs for in-liquid AFM imaging. SLBs were formed using a vesicle fusion method as described elsewhere.^19 Freshly prepared vesicles (1.5 μL, 3 mg/mL) were added to cleaved mica that was pre-hydrated in 20 mM MOPS, 120 mM NaCl, 20 mM MgCl2 (pH 7.4).
After incubation over 45 min, the samples were washed 10 times with imaging buffer (20 mM MOPS, with 120 mM NaCl, pH 7.4) to remove unfused vesicles. The resulting SLBs were checked to confirm they were defect free. Mica discs (Agar Scientific, Stansted, UK) were glued to a metal puck, and freshly cleaved prior to lipid deposition.
In-liquid AFM imaging of SLBs. The topographic imaging of SLBs in aqueous buffers was performed on a Multimode 8 AFM system (Bruker AXS, USA) using Peak Force Tapping™ mode and MSNL-E cantilevers (Bruker AFM probes, USA). Images were taken at the PeakForce frequency of 2 kHz, PeakForce amplitude of 10-20 nm and PeakForce set-point of 10-30 mV (<100 pN). The images were then processed using Gwyddion (http://gwyddion.net) for line-by-line background subtraction (flattening) and plane fitting. NI01 or its derivatives were introduced into a 100-μL fluid cell (Bruker AXS, USA) to the final concentrations stated.

[12] = system: EMRSA (12817); assay type: cell-based, S. aureus
Protocol: as §1

[13] = system: EMRSA (12845); assay type: cell-based, S. aureus
Protocol: as §1

[14] = system: EMRSA (12873); assay type: cell-based, S. aureus
Protocol: as §1

[15] = Thermal unfolding by CD spectroscopy; assay type: physicochemical; settings: 20 μM protein, pH 7.4, 10 mM phosphate buffer
Protocol: Circular Dichroism Spectroscopy. Aqueous peptide solutions (300 μL, at a given concentration) were prepared in filtered (0.22 μm), 10 mM phosphate buffer, pH 7.4. CD spectra recorded in the presence of synthetic membranes are for L/P molar ratio of 100. All CD spectra were recorded on a JASCO J-810 spectropolarimeter fitted with a Peltier temperature controller. All measurements were taken in ellipticities in mdeg and converted to molar ellipticities by normalizing for the concentration of peptide bonds and cuvette path length ([θ], deg cm2 dmol−1 res−1). The data collected with a 1 nm step and 1 s collection time per step are presented as the average of 4 scans. Thermal denaturation curves were recorded with 2° C. intervals using 1 nm bandwidth, 180 s equilibration time for each spectrum and with 2° C./min ramp rate.

[16] = K. pneumoniae (NCTC 5055), 24 h at 37° C.

CC1(C)S[C@@H]2[C@H](NC(=O)[C@H](N)c3ccccc3)C(=O)N2[C@H]1C(=O)O [ampicillin, reference compound]
MIC ([1]; Klebsiella pneumoniae, NCTC5055, K. pneumoniae (NCTC 5055), 24 h at 37° C., read-out: Minimum Inhibitory Concentration): 5 µg/mL (≈ 14.3 µM)
MIC ([2]; Pseudomonas aeruginosa, ATCC27853, P. aeruginosa (ATCC 27853), 24 h at 37° C., read-out: Minimum Inhibitory Concentration): 8 µg/mL (≈ 22.9 µM)
MIC ([3]; Micrococcus luteus, ATCC49732, M. luteus (ATCC 49732), 24 h at 37° C., read-out: Minimum Inhibitory Concentration): 1 µg/mL (≈ 2.86 µM)
MIC ([4]; Escherichia coli, ATCC15597, E. coli (ATCC 15597), 24 h at 37° C., read-out: Minimum Inhibitory Concentration): 24 µg/mL (≈ 68.7 µM)
MIC ([5]; Staphylococcus aureus, ATCC6538, S. aureus (ATCC 6538), 24 h at 37° C., read-out: Minimum Inhibitory Concentration): 1 µg/mL (≈ 2.86 µM)
MIC ([6]; Bacillus subtilis, ATCC6633, B. subtilis (ATCC 6633), 24 h at 37° C., read-out: Minimum Inhibitory Concentration): 9 µg/mL (≈ 25.8 µM)
MIC ([7]; Salmonella enterica): 8 µg/mL (≈ 22.9 µM)

CC[C@H](C)[C@H](NC(=O)CN)C(=O)NCC(=O)N[C@@H](C)C(=O)N[C@H](C(=O)N[C@@H](CC(C)C)C(=O)N[C@@H](CCCCN)C(=O)N[C@H](C(=O)N[C@@H](CC(C)C)C(=O)N[C@H](C(=O)N[C@H](C(=O)NCC(=O)N[C@@H](CC(C)C)C(=O)N1CCC[C@H]1C(=O)N[C@@H](C)C(=O)N[C@@H](CC(C)C)C(=O)N[C@H](C(=O)N[C@@H](CO)C(=O)N[C@@H](Cc1c[nH]c2ccccc12)C(=O)N[C@H](C(=O)N[C@@H](CCCCN)C(=O)N[C@@H](CCCNC(=N)N)C(=O)N[C@@H](CCCCN)C(=O)N[C@@H](CCCNC(=N)N)C(=O)N[C@@H](CCC(N)=O)C(=O)N[C@@H](CCC(N)=O)C(N)=O)[C@@H](C)CC)[C@@H](C)CC)[C@@H](C)O)[C@@H](C)O)C(C)C)C(C)C [melittin]
Minimum Inhibitory Concentration [1, 16]: 9 µg/mL

For-MAAFMKLIQFLATKGQKYVSLAWKHKGTILKWINAGQSFEWIYKQIKKLWA [NI01, epidermicin NI01]
hemolytic activity in words [8]: non-hemolytic
HC50 at 1 h [9]: 500 µg/mL
toxicity towards mammalian cells lines [10]: negligible levels of toxicity

For-[dM][dA][dA][dF][dM][dK][dL][dI][dQ][dF][dL][dA][dT][dK]G[dQ][dK][dY][dV][dS][dL][dA][dW][dK][dH][dK]G[dT][dI][dL][dK][dW][dI][dN][dA]G[dQ][dS][dF][dE][dW][dI][dY][dK][dQ][dI][dK][dK][dL][dW][dA] [NI01 D-form]
hemolytic activity in words [8]: non-hemolytic
HC50 at 1 h [9]: 600 µg/mL
mode of membrane disruption (AFM) [11]: strikingly similar pattern to that of the all-L form

H-MAAFMKLIQFLATKGQKYVSLAWKHKGTILKWIN-NH2 [α1α2α3]
HC50 at 1 h [9]: 200 µg/mL
Minimum Inhibitory Concentration ([1]; NCTC 5055, 24 h): 20 µg/mL
Minimum Inhibitory Concentration ([2]; ATCC 27853, 24 h): 12 µg/mL
Minimum Inhibitory Concentration ([3]; ATCC 49732, 24 h): 6 µg/mL
Minimum Inhibitory Concentration ([4]; ATCC 15597, 24 h): 6 µg/mL
Minimum Inhibitory Concentration ([5]; ATCC 6538, 24 h): 6 µg/mL
Minimum Inhibitory Concentration ([6]; ATCC 6633, 24 h): 6 µg/mL
mode of membrane disruption (AFM) [11]: two predicted modes of membrane disruption were evident
Minimum Inhibitory Concentration [12]: 32 µg/mL
Minimum Inhibitory Concentration [13]: 32 µg/mL
Minimum Inhibitory Concentration [14]: 32 µg/mL

KGTILKWINAGQSFEWIYKQIKKLWA-NH2 [α3α4]
HC50 at 1 h [9]: 150 µg/mL
antibacterial activity in words [2]: ineffective
antibacterial activity in words [5]: equally effective
mode of membrane disruption (AFM) [11]: mixed mode of membrane disruption

KYVSLAWKHKGTILKWINAGQSFEWIYKQIKKLWA-NH2 [α2α3α4]
HC50 at 1 h [9]: 200 µg/mL

MAAFMKLIQFLATKGQKYVSLAWK-NH2 [α1α2]
HC50 at 1 h [9]: 150 µg/mL
antibacterial activity in words [2]: ineffective
antibacterial activity in words [5]: equally effective
mode of membrane disruption (AFM) [11]: extended petal-like pores

MAAFMRLIQFLATRGQRYVSLAWRRRGTILRWINAGQSFEWIYRQIRRLWA-NH2 [NI01 R-mutant]
hemolytic activity in words [8]: drastically increased
HC50 at 1 h [9]: 250 µg/mL
Minimum Inhibitory Concentration ([1]; NCTC 5055, 24 h): 18 µg/mL
Minimum Inhibitory Concentration ([2]; ATCC 27853, 24 h): >300 µg/mL
Minimum Inhibitory Concentration ([3]; ATCC 49732, 24 h): 2 µg/mL
Minimum Inhibitory Concentration ([4]; ATCC 15597, 24 h): 9 µg/mL
Minimum Inhibitory Concentration ([5]; ATCC 6538, 24 h): 5 µg/mL
Minimum Inhibitory Concentration ([6]; ATCC 6633, 24 h): 18 µg/mL
mode of membrane disruption (AFM) [11]: exclusively thinning patches

QKYVSLAWKHKGTILKWINA-NH2 [α2α3]
concentration showing no hemolytic activity [8]: > 600 µg/mL

aureocin A53
mode of membrane disruption (AFM) [11]: membrane thinning patches and transmembrane lesions and pores
transition midpoint (TM) of thermal unfolding [15]: ~54 °C

polymyxin B [reference compound]
HD30, median hemolytic doses to achieve 50% lysis ([8]; Human erythrocytes, 1 h at room temperature): 350 µg/mL
Minimum Inhibitory Concentration [1, 16]: 4 µg/mL
Minimum Inhibitory Concentration ([2]; P. aeruginosa (ATCC 27853), 24 h at 37° C.): 2 µg/mL
Minimum Inhibitory Concentration ([3]; M. luteus (ATCC 49732), 24 h at 37° C.): 2 µg/mL
Minimum Inhibitory Concentration ([4]; E. coli (ATCC 15597), 24 h at 37° C.): 2 µg/mL
Minimum Inhibitory Concentration ([5]; S. aureus (ATCC 6538), 24 h at 37° C.): 32 µg/mL
Minimum Inhibitory Concentration ([6]; B. subtilis (ATCC 6633), 24 h at 37° C.): 4 µg/mL
Minimum Inhibitory Concentration [7]: 2 µg/mL
